Measurements published in patent US11945790B2 (ImmunoMolecular Therapeutics, Inc., priority 2020, dated 2024).

Molecular target: HLA-DQ2 (Homo sapiens, UniProt P01909+P01920)
Test: Inhibition of IL-2 secretion by TCR transductants stimulated by α-gliadin peptides presented by HLA-DQ2 expressing K562 cells (ELISA)
Format: cell-based
Conditions: inhibition of IL-2 secretion at 200 uM; tested as trans racemate unless otherwise noted; lines naming several Examples = stereoisomer mixture of those Examples
Method: Three commercially available analogues of the DQ2 binding molecules of the invention were tested for their ability to inhibit stimulation of T cell receptor (TCR) transductants in the presence of HLA-DQ2 expressing cells presenting known α-gliadin epitopes.
Using a previously published in vitro assay (Ostrov D, et al. Methyldopa blocks MHC class II binding to disease specific antigens in autoimmune diabetes. J Clin Invest. 2018:128 (5)) the ability of these DQ2 binding analogues to inhibit interleukin-2 (IL-2) secretion by TCR transductants stimulated by α-gliadin peptides presented by HLA-DQ2 was determined. Individual TCR transductants (recognizing a I-gliadin or a II-gliadin) were cultured with a gliadin peptide plus the small molecule analogues in the presence of HLA-DQ2 expressing K562 cells serving as antigen presenting cells. TCR transductants cultured with no gliadin peptide served as the negative control, and incubation with an anti-CD3 antibody (eBioscience; clone 2C11) served as a positive control for the TCR transductant. Secreted IL-2 in the culture supernatant was measured using a highly sensitive enzyme-linked immunosorbent assay (ELISA). […] Assays for effects on cell viability and for specificity, assayed in the absence of gliadin peptide or in the presence of a stimulating anti-CD3 antibody, were performed. Unless otherwise noted, the stereochemistry shown below represents the relative configuration. Further, unless otherwise noted, compounds were tested as the trans racemate.

Chain of HLA-DQ2 (P01920 33-261 limits assumed, other chains not shown): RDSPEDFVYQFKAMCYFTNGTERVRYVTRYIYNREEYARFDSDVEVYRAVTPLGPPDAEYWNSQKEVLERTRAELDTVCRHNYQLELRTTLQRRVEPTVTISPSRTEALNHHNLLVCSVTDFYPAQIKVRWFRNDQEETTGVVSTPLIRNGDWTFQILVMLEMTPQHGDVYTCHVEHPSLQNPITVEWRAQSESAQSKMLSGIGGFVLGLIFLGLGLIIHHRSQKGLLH

Row | % Inh at 200 uM | Structure (SMILES)
1 | D (D=0-24%) | O=C(O)c1cccc(OCC(=O)N2CCN(C(=O)[C@@H]3C[C@H]3c3ccccc3)CC2)c1 [Example 107]
2 | B (B=50-74%) | O=C(COc1cccc(O)c1)N1CCN(C(=O)[C@@H]2C[C@H]2c2ccccc2)CC1 [Example 96]
3 | B (B=50-74%) | CC(C)c1ccc(SCC(=O)N2CCN(C(=O)[C@@H]3C[C@H]3c3ccccc3)CC2)cc1 (relative stereo) [Example 54, 2-((4-Isopropylphenyl)thio)-1-(4-(trans-2-phenylcyclopropane-1-carbonyl)piperazin-1-yl) ethan-1-one]
